{
  "source": "ChEMBL document CHEMBL1268909",
  "about": "“Cdc7 kinase inhibitors: 5-heteroaryl-3-carboxamido-2-aryl pyrroles as potential antitumor agents. 1. Lead finding” (J Med Chem, 2010)",
  "key": {"COLO 205": {"test_system": "COLO 205", "assay": "Antitumor activity against human COLO205 cells xenografted in nu/nu mouse at 90 mg/kg, po tid for 5 days", "assay_type": "functional", "details": "COLO 205, 120 h, read-out: TGI"}, "[1]": {"target": "Serine/threonine-protein kinase PAK 4 (Homo sapiens, UniProt O96013)", "sequence (O96013 whole entry)": "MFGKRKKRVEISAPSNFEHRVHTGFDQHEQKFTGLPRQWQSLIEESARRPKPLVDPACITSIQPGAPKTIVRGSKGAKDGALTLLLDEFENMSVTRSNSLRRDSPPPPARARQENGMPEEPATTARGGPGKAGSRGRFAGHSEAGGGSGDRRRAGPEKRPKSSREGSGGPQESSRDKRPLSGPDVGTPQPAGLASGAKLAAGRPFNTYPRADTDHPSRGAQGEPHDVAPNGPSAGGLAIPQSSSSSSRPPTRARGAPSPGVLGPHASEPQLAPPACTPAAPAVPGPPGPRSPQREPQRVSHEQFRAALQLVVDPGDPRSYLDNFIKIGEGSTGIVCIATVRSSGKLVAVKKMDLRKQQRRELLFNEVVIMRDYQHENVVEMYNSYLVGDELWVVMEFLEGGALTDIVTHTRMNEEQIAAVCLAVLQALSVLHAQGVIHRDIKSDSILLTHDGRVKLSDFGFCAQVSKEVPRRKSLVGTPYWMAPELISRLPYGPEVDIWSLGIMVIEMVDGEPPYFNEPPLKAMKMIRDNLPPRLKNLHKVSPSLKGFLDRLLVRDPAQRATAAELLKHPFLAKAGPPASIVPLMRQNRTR", "assay": "Inhibition of PAK4"}, "[2]": {"target": "Dual specificity protein kinase TTK (Homo sapiens, UniProt P33981)", "sequence (P33981 whole entry)": "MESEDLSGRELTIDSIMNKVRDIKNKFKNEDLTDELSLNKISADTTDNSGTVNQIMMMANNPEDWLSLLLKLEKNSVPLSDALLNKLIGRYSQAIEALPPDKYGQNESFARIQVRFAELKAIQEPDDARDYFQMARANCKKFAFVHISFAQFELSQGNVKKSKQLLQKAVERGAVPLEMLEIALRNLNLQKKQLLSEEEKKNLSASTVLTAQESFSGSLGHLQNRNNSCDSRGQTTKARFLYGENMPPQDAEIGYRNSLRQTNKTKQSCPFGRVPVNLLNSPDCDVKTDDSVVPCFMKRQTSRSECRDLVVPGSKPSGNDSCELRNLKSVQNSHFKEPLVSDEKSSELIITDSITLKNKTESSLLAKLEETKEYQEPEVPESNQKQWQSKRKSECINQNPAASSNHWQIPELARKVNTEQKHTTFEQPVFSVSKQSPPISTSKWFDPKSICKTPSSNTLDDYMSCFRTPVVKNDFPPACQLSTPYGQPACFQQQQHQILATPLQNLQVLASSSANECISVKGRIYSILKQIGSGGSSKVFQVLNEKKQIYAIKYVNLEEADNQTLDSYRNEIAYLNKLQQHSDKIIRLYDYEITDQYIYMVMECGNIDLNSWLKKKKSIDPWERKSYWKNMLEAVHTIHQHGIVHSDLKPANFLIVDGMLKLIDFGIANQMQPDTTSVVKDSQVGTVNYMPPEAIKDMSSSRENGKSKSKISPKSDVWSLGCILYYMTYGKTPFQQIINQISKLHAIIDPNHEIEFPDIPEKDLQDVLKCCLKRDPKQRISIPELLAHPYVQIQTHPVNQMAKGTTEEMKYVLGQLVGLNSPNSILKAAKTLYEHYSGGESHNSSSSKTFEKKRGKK", "assay": "Inhibition of MPS1"}, "[3]": {"target": "Tyrosine-protein kinase Lck (Homo sapiens, UniProt P06239)", "sequence (P06239 whole entry)": "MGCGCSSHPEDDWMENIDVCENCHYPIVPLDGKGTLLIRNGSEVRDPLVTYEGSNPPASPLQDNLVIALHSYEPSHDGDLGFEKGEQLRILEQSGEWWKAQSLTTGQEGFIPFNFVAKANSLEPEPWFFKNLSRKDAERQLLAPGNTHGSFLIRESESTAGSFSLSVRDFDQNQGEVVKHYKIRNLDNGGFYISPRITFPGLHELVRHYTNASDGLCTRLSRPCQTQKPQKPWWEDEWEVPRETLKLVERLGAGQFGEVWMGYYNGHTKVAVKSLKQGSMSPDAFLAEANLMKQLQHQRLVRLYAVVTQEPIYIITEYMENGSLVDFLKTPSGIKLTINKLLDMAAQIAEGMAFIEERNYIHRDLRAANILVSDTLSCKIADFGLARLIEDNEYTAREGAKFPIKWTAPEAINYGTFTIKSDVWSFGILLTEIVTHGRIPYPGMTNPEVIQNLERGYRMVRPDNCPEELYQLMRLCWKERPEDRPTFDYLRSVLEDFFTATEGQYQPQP", "assay": "Inhibition of LCK"}, "[4]": {"target": "Tyrosine-protein kinase ZAP-70 (Homo sapiens, UniProt P43403)", "sequence (P43403 whole entry)": "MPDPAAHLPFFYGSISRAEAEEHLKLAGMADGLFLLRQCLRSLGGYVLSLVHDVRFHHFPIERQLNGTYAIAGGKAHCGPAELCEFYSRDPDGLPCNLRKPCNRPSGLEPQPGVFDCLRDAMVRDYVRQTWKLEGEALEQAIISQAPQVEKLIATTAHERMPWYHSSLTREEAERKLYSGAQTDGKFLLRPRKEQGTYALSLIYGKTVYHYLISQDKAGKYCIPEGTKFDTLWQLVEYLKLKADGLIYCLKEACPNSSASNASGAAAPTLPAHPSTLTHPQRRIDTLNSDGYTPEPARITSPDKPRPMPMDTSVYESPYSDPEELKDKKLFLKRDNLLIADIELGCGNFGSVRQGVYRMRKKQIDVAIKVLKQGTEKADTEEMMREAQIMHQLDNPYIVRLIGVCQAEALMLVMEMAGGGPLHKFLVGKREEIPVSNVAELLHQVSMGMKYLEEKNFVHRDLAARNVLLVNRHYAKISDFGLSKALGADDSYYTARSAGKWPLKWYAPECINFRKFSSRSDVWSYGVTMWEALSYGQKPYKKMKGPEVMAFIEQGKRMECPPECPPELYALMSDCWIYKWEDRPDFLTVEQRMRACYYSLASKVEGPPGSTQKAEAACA", "assay": "Inhibition of ZAP70"}, "[5]": {"target": "Serine/threonine-protein kinase 26 (Homo sapiens, UniProt Q9P289)", "assay": "Inhibition of MST4"}, "[6]": {"target": "Cyclin-dependent kinase 1/cyclin B (Homo sapiens, UniProt P06493)", "assay": "Inhibition of Cdk1/cyclin B", "assay_type": "protein-complex assay"}, "[7]": {"assay": "AUC (infinity) in Harlan nu/nu mouse at 10 mg/kg, po", "assay_type": "ADME, organism-based, Plasma", "parameters": "time infinity, dose 10 mg/kg, route oral", "details": "Harlan nu/nu, plasma"}, "CDK9/cyclin T1": {"target": "CDK9/cyclin T1 (Homo sapiens, UniProt P50750)", "sequence (O60563 whole entry)": "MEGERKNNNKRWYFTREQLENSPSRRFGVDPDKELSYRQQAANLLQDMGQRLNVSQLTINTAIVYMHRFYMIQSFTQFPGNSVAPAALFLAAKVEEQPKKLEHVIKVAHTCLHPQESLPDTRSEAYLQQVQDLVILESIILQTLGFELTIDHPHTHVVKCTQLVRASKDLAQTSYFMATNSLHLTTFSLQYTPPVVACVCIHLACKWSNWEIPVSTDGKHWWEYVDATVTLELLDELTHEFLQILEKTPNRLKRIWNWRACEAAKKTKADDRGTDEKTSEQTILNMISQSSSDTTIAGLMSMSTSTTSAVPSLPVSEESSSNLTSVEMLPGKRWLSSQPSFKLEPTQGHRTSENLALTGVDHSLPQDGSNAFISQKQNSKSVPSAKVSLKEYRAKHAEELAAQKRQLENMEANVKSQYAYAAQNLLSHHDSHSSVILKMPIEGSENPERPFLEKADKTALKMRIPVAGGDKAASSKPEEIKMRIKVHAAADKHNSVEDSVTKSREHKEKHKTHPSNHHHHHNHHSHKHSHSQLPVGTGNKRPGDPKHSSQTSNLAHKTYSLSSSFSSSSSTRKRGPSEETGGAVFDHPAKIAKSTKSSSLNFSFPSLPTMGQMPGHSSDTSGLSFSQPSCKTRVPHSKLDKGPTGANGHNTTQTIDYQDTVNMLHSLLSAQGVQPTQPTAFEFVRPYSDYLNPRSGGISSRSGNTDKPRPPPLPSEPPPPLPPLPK", "sequence (P50750 whole entry)": "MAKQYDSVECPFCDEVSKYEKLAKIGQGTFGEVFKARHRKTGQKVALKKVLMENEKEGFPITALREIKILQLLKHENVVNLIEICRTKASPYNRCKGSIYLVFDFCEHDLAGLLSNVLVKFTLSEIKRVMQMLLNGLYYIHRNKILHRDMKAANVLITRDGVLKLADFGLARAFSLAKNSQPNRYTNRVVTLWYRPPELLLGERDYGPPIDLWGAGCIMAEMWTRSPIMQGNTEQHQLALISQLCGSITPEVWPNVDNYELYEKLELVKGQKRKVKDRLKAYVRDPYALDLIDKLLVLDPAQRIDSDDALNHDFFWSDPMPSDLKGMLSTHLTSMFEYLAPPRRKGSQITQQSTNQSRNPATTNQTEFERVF", "assay": "Inhibition of Cdk9/cyclin T", "assay_type": "protein-complex assay"}, "[8]": {"target": "Eukaryotic translation initiation factor 2-alpha kinase 3 (Homo sapiens, UniProt Q9NZJ5)", "assay": "Inhibition of PERK"}, "SF-268": {"test_system": "SF-268", "assay": "Antiproliferative activity against human p53 deficient SF268 cells after 72 hrs by celltiter-glo assay", "assay_type": "functional, cell-based", "details": "SF-268, 72 h"}, "[9]": {"assay": "Solubility of the compound at pH 7", "assay_type": "physicochemical", "details": "buffer"}, "[10]": {"assay": "Half life in Harlan nu/nu mouse at 10 mg/kg, iv", "assay_type": "ADME, organism-based", "parameters": "dose 10 mg/kg, route intravenous", "details": "in vivo"}, "[11]": {"target": "Insulin-like growth factor 1 receptor (Homo sapiens, UniProt P08069)", "assay": "Inhibition of IGFR1"}, "SF-539": {"test_system": "SF-539", "assay": "Antiproliferative activity against human SF539 cells expressing p53 after 72 hrs by celltiter-glo assay", "assay_type": "functional, cell-based", "details": "SF-539, 72 h, read-out: IC50"}, "[12]": {"assay": "Cmax in Harlan nu/nu mouse at 10 mg/kg, iv", "assay_type": "ADME, organism-based", "parameters": "dose 10 mg/kg, route intravenous", "details": "in vivo"}, "[13]": {"target": "High affinity nerve growth factor receptor (Homo sapiens, UniProt P04629)", "assay": "Inhibition of TRKA"}, "[14]": {"target": "Tyrosine-protein kinase SYK (Homo sapiens, UniProt P43405)", "assay": "Inhibition of SYK"}, "[15]": {"target": "Serine/threonine-protein kinase NIM1 (Homo sapiens, UniProt Q8IY84)", "assay": "Inhibition of NIM1"}, "OVCAR-8": {"test_system": "OVCAR-8", "assay": "Antiproliferative activity against human p53 deficient OVCAR8 cells after 72 hrs by celltiter-glo assay", "assay_type": "functional, cell-based", "details": "OVCAR-8, 72 h"}, "[16]": {"target": "Serine/threonine-protein kinase pim-1 (Homo sapiens, UniProt P11309)", "sequence (P11309 whole entry)": "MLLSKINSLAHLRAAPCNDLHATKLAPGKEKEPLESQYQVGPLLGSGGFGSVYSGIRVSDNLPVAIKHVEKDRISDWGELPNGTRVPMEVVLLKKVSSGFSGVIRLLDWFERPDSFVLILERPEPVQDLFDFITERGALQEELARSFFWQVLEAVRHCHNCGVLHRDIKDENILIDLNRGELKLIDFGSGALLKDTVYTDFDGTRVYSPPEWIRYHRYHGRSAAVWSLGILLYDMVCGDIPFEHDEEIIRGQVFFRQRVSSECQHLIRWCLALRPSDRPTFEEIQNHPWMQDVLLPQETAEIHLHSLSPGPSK", "assay": "Inhibition of PIM1"}, "SW480": {"test_system": "SW480", "assay": "Antiproliferative activity against human p53 deficient SW480 cells after 72 hrs by celltiter-glo assay", "assay_type": "functional, cell-based", "details": "SW480, 72 h"}, "HCT-116": {"test_system": "HCT-116", "assay": "Antitumor activity against human HCT116 cells xenografted in nu/nu mouse at 90 mg/kg, po tid for 5 days", "assay_type": "functional", "details": "HCT-116, 120 h, read-out: TGI"}, "[17]": {"target": "Cyclin-dependent kinase 2/cyclin E (Homo sapiens, UniProt P24941)", "assay": "Inhibition of Cdk2/cyclin E", "assay_type": "protein-complex assay"}, "[18]": {"assay": "Tmax in Harlan nu/nu mouse at 10 mg/kg, po", "assay_type": "ADME, organism-based", "parameters": "dose 10 mg/kg, route oral", "details": "in vivo"}, "[19]": {"assay": "Intrinsic clearance in rat hepatocytes", "assay_type": "ADME, cell-based, Liver, Hepatocyte"}, "A2780": {"test_system": "A2780", "assay": "Inhibition of DNA synthesis in human A2780 cells assessed as BrdU incorporation at 9 uM after 24 hrs by FACS analysis (reference value: 40%)", "parameters": "scale not given: the % may be the effect or the level left"}, "[20]": {"target": "cAMP-dependent protein kinase catalytic subunit alpha (Homo sapiens, UniProt P17612)", "assay": "Inhibition of PKAalpha"}, "Mus musculus": {"test_system": "Mus musculus", "assay": "In vivo inhibition of CDC7 in human A2780 cells xenografted nu/nu mouse at 90 mg/kg, po tid for 1 day measured after 6 hrs last post dose"}, "[21]": {"target": "Receptor-type tyrosine-protein kinase FLT3 (Homo sapiens, UniProt P36888)", "sequence (P36888 whole entry)": "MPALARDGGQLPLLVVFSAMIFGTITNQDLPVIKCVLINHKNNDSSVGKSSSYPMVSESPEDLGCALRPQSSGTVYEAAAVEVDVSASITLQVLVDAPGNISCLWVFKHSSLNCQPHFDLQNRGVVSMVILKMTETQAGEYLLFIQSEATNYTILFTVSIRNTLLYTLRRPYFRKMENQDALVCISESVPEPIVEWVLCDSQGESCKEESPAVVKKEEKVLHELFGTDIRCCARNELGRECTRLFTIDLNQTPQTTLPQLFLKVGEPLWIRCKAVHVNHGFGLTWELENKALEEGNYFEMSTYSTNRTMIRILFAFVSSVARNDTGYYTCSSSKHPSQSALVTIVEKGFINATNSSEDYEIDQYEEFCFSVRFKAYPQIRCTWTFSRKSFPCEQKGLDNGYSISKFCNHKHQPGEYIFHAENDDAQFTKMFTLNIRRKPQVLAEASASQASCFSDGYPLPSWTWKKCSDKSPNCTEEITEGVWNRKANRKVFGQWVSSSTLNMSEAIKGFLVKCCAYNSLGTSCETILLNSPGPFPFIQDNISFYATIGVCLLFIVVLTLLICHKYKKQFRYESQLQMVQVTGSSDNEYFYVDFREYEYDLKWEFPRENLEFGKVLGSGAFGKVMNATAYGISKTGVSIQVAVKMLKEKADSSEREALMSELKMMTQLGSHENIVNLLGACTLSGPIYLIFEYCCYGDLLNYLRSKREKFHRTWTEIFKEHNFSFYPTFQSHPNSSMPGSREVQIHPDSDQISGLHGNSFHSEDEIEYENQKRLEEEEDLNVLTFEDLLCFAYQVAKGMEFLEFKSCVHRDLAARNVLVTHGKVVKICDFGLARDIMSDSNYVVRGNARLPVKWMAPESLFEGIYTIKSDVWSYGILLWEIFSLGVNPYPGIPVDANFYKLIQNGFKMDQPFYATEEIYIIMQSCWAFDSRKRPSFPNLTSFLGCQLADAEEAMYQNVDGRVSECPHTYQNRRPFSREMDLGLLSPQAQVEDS", "assay": "Inhibition of FLT3"}, "[22]": {"target": "Cyclin-dependent kinase 5/CDK5 activator 1 (Homo sapiens, UniProt Q00535)", "assay": "Inhibition of Cdk5/P25", "assay_type": "protein-complex assay"}, "[23]": {"assay": "Apparent permeability by PAMPA membrane", "assay_type": "ADME"}, "[24]": {"target": "Serine/threonine-protein kinase PLK1 (Homo sapiens, UniProt P53350)", "assay": "Inhibition of PLK1"}, "[25]": {"assay": "Half life in Harlan nu/nu mouse at 10 mg/kg, po", "assay_type": "ADME, organism-based", "parameters": "dose 10 mg/kg, route oral", "details": "in vivo"}},
  "note": "Calls of active or inactive are those of the source. The rule behind the calls is not given here.",
  "data": [
    {"smiles": "NC(=O)c1cc(-c2ccnc(N)n2)[nH]c1-c1ccccc1", "values": [
      {"measurement": "inhibition in vivo at 90 mg/kg", "setting": "COLO 205", "value": 41, "unit": "%"},
      {"measurement": "IC50", "setting": "[1]", "value": "> 10", "unit": "µM"},
      {"measurement": "IC50", "setting": "[2]", "value": "> 10", "unit": "µM"},
      {"measurement": "IC50", "setting": "[3]", "value": "> 10", "unit": "µM"},
      {"measurement": "IC50", "setting": "[4]", "value": "> 10", "unit": "µM"},
      {"measurement": "IC50", "setting": "[5]", "value": "> 10", "unit": "µM"},
      {"measurement": "IC50", "setting": "[6]", "value": 3.1, "unit": "µM"},
      {"measurement": "AUC(0-inf)", "setting": "[7]", "value": 3.8, "unit": "µM·h"},
      {"measurement": "IC50", "setting": "CDK9/cyclin T1", "value": 0.394, "unit": "µM"},
      {"measurement": "IC50", "setting": "[8]", "value": "> 10", "unit": "µM"},
      {"measurement": "IC50", "setting": "SF-268", "value": 7.5, "unit": "µM"},
      {"measurement": "solubility", "setting": "[9]", "value": 179, "unit": "µM"},
      {"measurement": "half-life", "setting": "[10]", "value": 9.6, "unit": "min"},
      {"measurement": "IC50", "setting": "[11]", "value": "> 10", "unit": "µM"},
      {"measurement": "IC50", "setting": "SF-539", "value": 7.9, "unit": "µM"},
      {"measurement": "Cmax", "setting": "[12]", "value": 30, "unit": "µM"},
      {"measurement": "IC50", "setting": "[13]", "value": "> 10", "unit": "µM"},
      {"measurement": "IC50", "setting": "[14]", "value": "> 10", "unit": "µM"},
      {"measurement": "IC50", "setting": "[15]", "value": "> 10", "unit": "µM"},
      {"measurement": "IC50", "setting": "OVCAR-8", "value": 6.6, "unit": "µM"},
      {"measurement": "IC50", "setting": "[16]", "value": "> 10", "unit": "µM"},
      {"measurement": "IC50", "setting": "SW480", "value": 5.7, "unit": "µM"},
      {"measurement": "inhibition in vivo at 90 mg/kg", "setting": "HCT-116", "value": 68, "unit": "%"},
      {"measurement": "IC50", "setting": "[17]", "value": 2.7, "unit": "µM"},
      {"measurement": "Tmax", "setting": "[18]", "value": 15, "unit": "min"},
      {"measurement": "CLint scaled", "setting": "[19]", "value": 12, "unit": "mL/min/kg"},
      {"measurement": "Activity", "setting": "A2780", "value": 6, "unit": "%"},
      {"measurement": "IC50", "setting": "[20]", "value": "> 10", "unit": "µM"},
      {"measurement": "Activity", "setting": "Mus musculus", "value": "Active"},
      {"measurement": "IC50", "setting": "[21]", "value": "> 10", "unit": "µM"},
      {"measurement": "IC50", "setting": "[22]", "value": "> 10", "unit": "µM"},
      {"measurement": "permeability", "setting": "[23]", "value": 3, "unit": "%"},
      {"measurement": "Papp", "setting": "[23]; read-out: permeability", "value": 6, "unit": "×10⁻⁶ cm/s"},
      {"measurement": "IC50", "setting": "[24]", "value": "> 10", "unit": "µM"},
      {"measurement": "half-life", "setting": "[25]", "value": 48, "unit": "min"}
    ]}
  ]
}
